Patent US11440923B2, “Substituted macrocyclic indole derivatives” (Bayer Aktiengesellschaft, priority 2017, dated 2022)
Where a name gives a salt, the structure may show the parent alone. Read-outs that look alike come from different tables or passages of the source.

What was measured:
BCL-XL = BCL-XL (Homo sapiens (Human), UniProt Q07817); experiment: Protein-protein interaction assay BCL-XL/Bad BH3 peptide (BCL-XL assay, TR-FRET); assay type: binding; settings: read-out: BCL-XL Assay IC50 (median)
Summary of the method: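 TR-FRET competition: 1 nM His-tagged human BCL-XL (1-212) versus 1 nM biotin-PEG Bad BH3 peptide tracer, buffer 50 mM Tris pH 7, NaCl, KF, DTT. Compound preincubated with protein 10 min at 22 °C; read after 1 h at 22 °C plus overnight at 4 °C. IC50 by 4-parameter regression of normalized ratios.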

SUDHL5 cells = experiment: Induction of cytotoxicity in SUDHL5 cells (Assay 6); assay type: cell-based; settings: 5 h, CellTiter-Glo, read-out: Cytotox SUDHL5 IC50 (median)
Summary of the method: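 Run alongside apoptosis measurements, this cytotoxicity readout used cells treated with compound for 5 h at 37 °C and quantified ATP-based luminescence with CellTiter-Glo.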

AMO-1 cells = experiment: Antiproliferation assay AMO-1 (Assay 7); assay type: cell-based
Summary of the method: (§1)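 Luminescent viability signal (CellTiter-Glo) after 72 h of treatment served as read-out. IC50 values were derived with day 0 luminescence as CI and DMSO wells as C0.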

HMC-1-8 cells = experiment: Antiproliferation assay HMC-1-8 (Assay 7); assay type: cell-based
Summary of the method: as §1

[1] = Homo sapiens, AMO1, 72 h, read-out: Antiproli AMO-1 IC50 median, 72 h, CellTiter-Glo
[2] = 72 h, read-out: Antiproli HMC-1-8 IC50 median, 72 h, CellTiter-Glo
[3] = read-out: Antiproli AMO-1 IC50 median, 72 h, CellTiter-Glo
[4] = 72 h, CellTiter-Glo, read-out: Antiproli AMO-1 IC50 median
[5] = 72 h, CellTiter-Glo; read-out: Antiproli HMC-1-8 IC50 median
[6] = read-out: Antiproli HMC-1-8 IC50 median; 72 h, CellTiter-Glo
[7] = Homo sapiens, AMO1, 72 h, 72 h, CellTiter-Glo, read-out: Antiproli AMO-1 IC50 median
[8] = 72 h, CellTiter-Glo, read-out: Antiproli HMC-1-8 IC50 median

Chain of BCL-XL (Q07817 1-212): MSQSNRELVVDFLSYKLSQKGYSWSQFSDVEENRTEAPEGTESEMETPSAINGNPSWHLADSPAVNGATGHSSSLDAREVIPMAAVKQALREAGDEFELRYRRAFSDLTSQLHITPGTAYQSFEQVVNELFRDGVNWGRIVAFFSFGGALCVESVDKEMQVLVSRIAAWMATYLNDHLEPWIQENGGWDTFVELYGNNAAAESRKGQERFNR

Row | SMILES | IC50 (BCL-XL) [nM] | IC50 (SUDHL5 cells; Homo sapiens, SU-DHL-5, 5 h) [nM] | IC50 (AMO-1 cells; [1]) [nM] | IC50 (HMC-1-8 cells; [2]) [nM] | IC50 (SUDHL5 cells) [nM] | IC50 (AMO-1 cells; [3]) [nM] | IC50 (AMO-1 cells; [4]) [nM] | IC50 (HMC-1-8 cells; [5]) [nM] | IC50 (HMC-1-8 cells; [6]) [nM] | IC50 (AMO-1 cells; [7]) [nM] | IC50 (HMC-1-8 cells; [8]) [nM]
1 | Cc1c2c(nn1C)C(CCN1CCOCC1)OCCCCn1c(C(=O)O)c(CCCOc3cccc4cc(F)ccc34)c3ccc(Cl)c-2c31 (single isomer, unassigned; enantiomer 1) [Example 17, 4-chloro-7-{3-[(6-fluoronaphthalen-1-yl)oxy]propyl}-2,3-dimethyl-15-[2-(morpholin-4-yl)ethyl]-2,10,11,12,13,15-hexahydropyrazolo[4′,3′:9,10][1,6]oxazacycloundecino[8,7,6-hi]indole-8-carboxylic Acid—N-ethylethanamine (Enantiomer 1)] | > 20000 | 11 | 28.2 | 201 |  |  |  |  |  |  | 
2 | Cc1c2c(nn1C)C(CCN1CCOCC1)OCCCCn1c(C(=O)O)c(CCCOc3cccc4cc(F)ccc34)c3ccc(F)c-2c31 (single isomer, unassigned; enantiomer 1) [Example 20, 4-fluoro-7-{3-[(6-fluoronaphthalen-1-yl)oxy]propyl}-2,3-dimethyl-15-[2-(morpholin-4-yl)ethyl]-2,10,11,12,13,15-hexahydropyrazolo[4′,3′:9,10][1,6]oxazacycloundecino[8,7,6-hi]indole-8-carboxylic Acid—N-ethylethanamine (Enantiomer 1)] | > 20000 | 33 | 94.5 | 460 |  |  |  |  |  |  | 
3 | CCC1OCCCCn2c(C(=O)O)c(CCCOc3cccc4ccccc34)c3ccc(Cl)c(c32)-c2c1nn(C)c2C (single isomer, unassigned; enantiomer 1) [Example 29, (+)-4-chloro-15-ethyl-2,3-dimethyl-7-{3-[(naphthalen-1-yl)oxy]propyl}-2,10,11,12,13,15-hexahydropyrazolo[4′,3′:9,10][1,6]oxazacycloundecino[8,7,6-hi]indole-8-carboxylic Acid—N-ethylethanamine Salt (Enantiomer 1)] | 14200 |  |  | 23200 | 1100 | 4350 |  |  |  |  | 
4 | Cc1c2c(nn1C)C(CCO)OCCCCn1c(C(=O)O)c(CCCOc3cccc4ccccc34)c3ccc(Cl)c-2c31 (single isomer, unassigned; enantiomer 1) [Example 31, (+)-4-chloro-15-(2-hydroxyethyl)-2,3-dimethyl-7-{3-[(naphthalen-1-yl)oxy]propyl}-2,10,11,12,13,15-hexahydropyrazolo[4′,3′:9,10][1,6]oxazacycloundecino[8,7,6-hi]indole-8-carboxylic Acid (Enantiomer 1)] | > 20000 |  |  |  | 370 |  | 326 | 6800 |  |  | 
5 | CCc1c2c(nn1C)C(C(F)(F)F)OCCCCn1c(C(=O)O)c(CCCOc3cccc4ccccc34)c3ccc(Cl)c-2c31 (single isomer, unassigned; enantiomer 1) [Example 33, (+)-4-chloro-3-ethyl-2-methyl-7-{3-[(naphthalen-1-yl)oxy]propyl}-15-(trifluoromethyl)-2,10,11,12,13,15-hexahydropyrazolo[4′,3′:9,10][1,6]oxazacycloundecino[8,7,6-hi]indole-8-carboxylic Acid—N-ethylethanamine Salt (Enantiomer 1)] | > 20000 |  |  | 15000 | 1100 | 6960 |  |  |  |  | 
6 | Cc1c2c(nn1C)C(C1CC1)OCCCCn1c(C(=O)O)c(CCCOc3cccc4ccccc34)c3ccc(Cl)c-2c31 (single isomer, unassigned; enantiomer 1) [Example 35, (+)-4-chloro-15-cyclopropyl-2,3-dimethyl-7-{3-[(naphthalen-1-yl)oxy]propyl}-2,10,11,12,13,15-hexahydropyrazolo[4′,3′:9,10][1,6]oxazacycloundecino[8,7,6-hi]indole-8-carboxylic Acid N-ethylethanamine Salt (Enantiomer 1)] | > 20000 |  |  | 19700 | 2000 | 3710 |  |  |  |  | 
7 | CCc1c2c(nn1C)C(C1CC1)OCCCCn1c(C(=O)O)c(CCCOc3cccc4cc(F)ccc34)c3ccc(Cl)c-2c31 (single isomer, unassigned; enantiomer 1) [Example 39, (+)-4-chloro-15-cyclopropyl-3-ethyl-7-{3-[(6-fluoronaphthalen-1-yl)oxy]propyl}-2-methyl-2,10,11,12,13,15-hexahydropyrazolo[4′,3′:9,10][1,6]oxazacycloundecino[8,7,6-hi]indole-8-carboxylic Acid—N-ethylethanamine Salt (Enantiomer 1)] | 18100 |  | 4940 | 12300 | 1000 |  |  |  |  |  | 
8 | CCc1c2c(nn1C)C(CCOC)OCCCCn1c(C(=O)O)c(CCCOc3cccc4cc(F)ccc34)c3ccc(Cl)c-2c31 (single isomer, unassigned; enantiomer 1) [Example 42, (+)-4-chloro-3-ethyl-7-{3-[(6-fluoronaphthalen-1-yl)oxy]propyl}-15-(2-methoxyethyl)-2-methyl-2,10,11,12,13,15-hexahydropyrazolo[4′,3′:9,10][1,6]oxazacycloundecino[8,7,6-hi]indole-8-carboxylic Acid—N-ethylethanamine Salt (Enantiomer 1)] | 15000 |  |  |  | 55 | 96.9 |  |  | 1080 |  | 
9 | CCc1c2c(nn1C)C(CCO)OCCCCn1c(C(=O)O)c(CCCOc3cccc4cc(F)ccc34)c3ccc(Cl)c-2c31 (single isomer, unassigned; enantiomer 1) [Example 45, (+)-4-chloro-3-ethyl-7-{3-[(6-fluoronaphthalen-1-yl)oxy]propyl}-15-(2-hydroxyethyl)-2-methyl-2,10,11,12,13,15-hexahydropyrazolo[4′,3′:9,10][1,6]oxazacycloundecino[8,7,6-hi]indole-8-carboxylic Acid (Enantiomer 1)] | > 20000 |  |  |  | 76 |  | 185 | 2140 |  |  | 
10 | CCc1c2c(nn1C)C(CCN1CCOCC1)OCCCCn1c(C(=O)O)c(CCCOc3cccc4cc(F)ccc34)c3ccc(F)c-2c31 (single isomer, unassigned; enantiomer 1) [Example 50, (+)-3-ethyl-4-fluoro-7-{3-[(6-fluoronaphthalen-1-yl)oxy]propyl}-2-methyl-15-[2-(morpholin-4-yl)ethyl]-2,10,11,12,13,15-hexahydropyrazolo[4′,3′:9,10][1,6]oxazacycloundecino[8,7,6-hi]indole-8-carboxylic Acid (Enantiomer 1)] | > 20000 |  |  |  | 16 |  | 65.4 | 392 |  |  | 
11 | CCc1c2c(nn1C)C(CC(C)(C)O)OCCCCn1c(C(=O)O)c(CCCOc3cccc4cc(F)ccc34)c3ccc(Cl)c-2c31 (single isomer, unassigned; enantiomer 1) [Example 53, (+)-4-chloro-3-ethyl-7-{3-[(6-fluoronaphthalen-1-yl)oxy]propyl}-15-(2-hydroxy-2-methylpropyl)-2-methyl-2,10,11,12,13,15-hexahydropyrazolo[4′,3′:9,10][1,6]oxazacycloundecino[8,7,6-hi]indole-8-carboxylic Acid—N-ethylethanamine Salt (Enantiomer 1)] | 11000 |  |  |  | 95 | 185 |  |  | 983 |  | 
12 | Cc1c2c(nn1C)C(CCN1CCOCC1)OCCCCn1c(C(=O)O)c(CCCOc3cccc4cc(F)ccc34)c3ccc(Cl)c-2c31 (single isomer, unassigned; enantiomer 2) [Example 18, 4-chloro-7-{3-[(6-fluoronaphthalen-1-yl)oxy]propyl}-2,3-dimethyl-15-[2-(morpholin-4-yl)ethyl]-2,10,11,12,13,15-hexahydropyrazolo[4′,3′:9,10][1,6]oxazacycloundecino[8,7,6-hi]indole-8-carboxylic Acid (Enantiomer 2)] | > 20000 | 530 |  |  |  |  |  |  |  | 2370 | 12500
13 | Cc1c2c(nn1C)C(CCN1CCOCC1)OCCCCn1c(C(=O)O)c(CCCOc3cccc4cc(F)ccc34)c3ccc(F)c-2c31 (single isomer, unassigned; enantiomer 2) [Example 21, 4-fluoro-7-{3-[(6-fluoronaphthalen-1-yl)oxy]propyl}-2,3-dimethyl-15-[2-(morpholin-4-yl)ethyl]-2,10,11,12,13,15-hexahydropyrazolo[4′,3′:9,10][1,6]oxazacycloundecino[8,7,6-hi]indole-8-carboxylic Acid (Enantiomer 2)] | > 20000 | 12000 |  |  |  |  |  |  |  | > 33000 | 13300
14 | CCC1OCCCCn2c(C(=O)O)c(CCCOc3cccc4ccccc34)c3ccc(Cl)c(c32)-c2c1nn(C)c2C (single isomer, unassigned; enantiomer 2) [Example 30, (−)-4-chloro-15-ethyl-2,3-dimethyl-7-{3-[(naphthalen-1-yl)oxy]propyl}-2,10,11,12,13,15-hexahydropyrazolo[4′,3′:9,10][1,6]oxazacycloundecino[8,7,6-hi]indole-8-carboxylic Acid—N-ethylethanamine Salt (Enantiomer 2)] | > 20000 |  |  |  | 29000 | 31600 |  |  | 22600 |  | 
